Assays:
C-36 fibrils [1] = target: T1, C-36 fibrils (Homo sapiens, UniProt P01009); experiment: Fibril incubation with plasma, quantitative MS/MS of bound proteins; assay type: binding; conditions: 50:1 w/w plasma protein:fibril
T1 construct: the 36 residue C-terminal fragment of α1-antitrypsin (C-36)
Procedure: (§1) Plasma and CSF solutions were centrifuged (40,000 g, 20 min) to remove any aggregates. The protein concentration was determined using 280 nm absorbance assuming 1 Abs = 1 mg/mL. […] Control samples (without fibril material) were prepared similarly. All samples were incubated at room temperature for one hour under gentle agitation. Fibrils and fibril-bound proteins were pelleted by centrifugation at 17,000 g for 30 minutes. The supernatant (175 μL) was removed and the aggregate was re-suspended in 175 μL PBS and pelleted again before further preparation for gel analysis and spin-filter assisted digest for quantitative MS/MS.
(§2) The fibril-protein pellets were transferred to spin-filters (0.22 μm), washed twice in PBS (100 μL) and once in 1 M NaCl (100 μL). The fibrils and fibril-bound proteins were dissolved by one-hour incubation in 100 μL 6 M guanidinium chloride followed by elution from the spin-filter. The eluted proteins were loaded onto a 3 kDa MWCO filter unit for filter-assisted unfolding, reduction, alkylation, and trypsin digestion. In brief, samples were washed twice in 8 M urea, once in 8 M urea with 50 mM DTT, once in 8 M urea with 50 mM iodoaceteamide, and twice in 8 M Urea. The filter units were dried by centrifugation (14,000 g in 30 minutes) after every addition. Trypsin digestion was carried out with 0.25 μg sequencing grade trypsin from Sigma Aldrich in 50 mM ammonium bicarbonate overnight at 37 °C. The tryptic peptides were collected by centrifugation, acidified with TFA (0.1%) and micro-purified using POROS R2 column material (Applied Biosystems) packed in P200 pipette tips (Sarstedt).
(§3) LC-MS/MS analyses were performed on an EASY-nLC II system (Thermo Fisher Scientific) connected to a TripleTOF 5600+ mass spectrometer (Sciex) equipped with a NanoSpray III source (Sciex) and operated under Analyst TF 1.6.0 control.
(§4) The micro-purified tryptic peptides were dissolved in 0.1% formic acid, injected and trapped on an in-house packed trap column (2 cm × 100 μm I.D) with RP ReproSil-Pur C18-AQ 3 μm resin (Dr. Maisch GmbH). Peptides were eluted from the trap column and separated on a 15 cm analytical column (75 μm i.d.) packed in-house in a pulled emitter with RP ReproSil-Pur C18-AQ 3 μm resin (Dr. Maisch GmbH). Elution from the analytical column was performed with a linear gradient from 5% to 35% phase B (90% acetonitrile with 0.1% formic acid) over 20 min for protein identification and 50 min for quantitative analysis, respectively.
(§5) All samples were analysed three times, yielding nine MS/MS experiments for each fibril for both plasma and CSF. For the area-based extracted ion chromatogram (XIC) quantification, the acquisition method was set up as an information-dependent acquisition (IDA) experiment collecting up to 25 MS/MS spectra in each 1.6 sec cycle using an exclusion window of 6 sec.
(§6) XIC quantification was based on the average ion intensity of the three most abundant peptides for each protein. Only proteins quantified in at least four out of nine MS/MS experiments per fibril were included in the quantification. The total ion scores were visualized after grouping the proteins according to function (Figure S11).
(§7) For each MS/MS experiment, the ion intensities of the individual proteins were normalized to the total ion intensity of that MS/MS experiment to achieve a relative protein composition. The contribution of each protein was averaged over all nine MS/MS experiments (Tables 1 and 2).

αSN fibrils [2] = target: T2, αSN fibrils (Homo sapiens, UniProt P37840); experiment: as above; assay type: binding; conditions: 50:1 w/w plasma protein:fibril
Procedure: as §1, §2, §3, §4, §5, §6, §7

Ab1 fibrils [3] = test system: T3, Ab1 fibrils; experiment: Fibril incubation with CSF, quantitative MS/MS of bound proteins; assay type: binding, human; set-up: key to Identification status of CSF protein bound: Ab1: *: Identified, but not quantified; —: Not identified in any of the samples; conditions: for Relative composition of CSF proteins bound: Ab1: 4:1 w/w CSF protein:fibril
T3 construct: Synthetic amyloid β peptide 1–40 was purchased from Caslo Aps (Lyngby, Denmark); purchased Caslo Aps (Lyngby, Denmark); host or cells: synthetic peptide
Procedure: as §1, §2, §3, §4, §5, §6, §7

Ab2 fibrils [4] = test system: T4, Ab2 fibrils; experiment: as above; assay type: binding, human; set-up: key to Identification status of CSF protein bound: Ab2: *: Identified, but not quantified; —: Not identified in any of the samples; conditions: for Relative composition of CSF proteins bound: Ab2: 4:1 w/w CSF protein:fibril
T4 construct: Two structurally distinct fibrils of the Aβ(1–40) peptide associated with AD
Procedure: as §1, §2, §3, §4, §5, §6, §7

glucagon fibrils [5] = target: T5, glucagon fibrils (Homo sapiens, UniProt P01275); experiment: as above; assay type: binding; conditions: 4:1 w/w CSF protein:fibril
T5 construct: fibrils of the peptide hormone glucagon
T5 sequence (P01275 53-81 limits assumed): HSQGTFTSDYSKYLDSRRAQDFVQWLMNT
Procedure: as §1, §2, §3, §4, §5, §6, §7

C-36 fibrils [6] = target: T1, C-36 fibrils; experiment: as above; assay type: binding; set-up: key to Identification status of CSF protein bound: C-36: *: Identified, but not quantified; —: Not identified in any of the samples; conditions: for Relative composition of CSF proteins bound: C-36: 4:1 w/w CSF protein:fibril
Procedure: as §1, §2, §3, §4, §5, §6, §7

αSN fibrils [7] = target: T2, αSN fibrils; experiment: as above; assay type: binding; set-up: key to Identification status of CSF protein bound: αSN: *: Identified, but not quantified; —: Not identified in any of the samples; conditions: for Identification status of CSF protein bound: αSN: symbol cells; for Relative composition of CSF proteins bound: αSN: 4:1 w/w CSF protein:fibril
Procedure: as §1, §2, §3, §4, §5, §6, §7

FAS4-AD aggregates [8] = test system: T6, FAS4-AD aggregates; experiment: as above; assay type: binding, human; set-up: key to Identification status of CSF protein bound: FAS4-AD: *: Identified, but not quantified; —: Not identified in any of the samples; conditions: for Identification status of CSF protein bound: FAS4-AD: symbol cells
T6 construct: aggregates of a mutated version of the FAS1-4 domain of TGFBIp
Procedure: as §1, §2, §3, §4, §5, §6, §7

Ab1 fibrils [9] = test system: T3, Ab1 fibrils; experiment: Fibril incubation with plasma, quantitative MS/MS of bound proteins; assay type: binding, human; set-up: key to Identification status of plasma protein bound: Ab1: *: Identified, but not quantified; —: Not identified in any of the samples; conditions: for Relative composition of plasma proteins bound: Ab1: 50:1 w/w plasma protein:fibril
Procedure: Plasma and CSF solutions were centrifuged (40,000 g, 20 min) to remove any aggregates. The protein concentration was determined using 280 nm absorbance assuming 1 Abs = 1 mg/mL. […] Control samples (without fibril material) were prepared similarly. All samples were incubated at room temperature for one hour under gentle agitation. Fibrils and fibril-bound proteins were pelleted by centrifugation at 17,000 g for 30 minutes. The supernatant (175 μL) was removed and the aggregate was re-suspended in 175 μL PBS and pelleted again before further preparation for gel analysis and spin-filter assisted digest for quantitative MS/MS.
as §2, §3, §4, §5, §6, §7

Ab2 fibrils [10] = test system: T4, Ab2 fibrils; experiment: as above; assay type: binding, human; set-up: key to Identification status of plasma protein bound: Ab2: *: Identified, but not quantified; —: Not identified in any of the samples; conditions: for Identification status of plasma protein bound: Ab2: symbol cells; for Relative composition of plasma proteins bound: Ab2: 50:1 w/w plasma protein:fibril
Procedure: as §1, §2, §3, §4, §5, §6, §7

glucagon fibrils [11] = target: T5, glucagon fibrils; experiment: as above; assay type: binding; set-up: key to Identification status of plasma protein bound: Glucagon: *: Identified, but not quantified; —: Not identified in any of the samples; conditions: for Relative composition of plasma proteins bound: Glucagon: 50:1 w/w plasma protein:fibril
Procedure: as §1, §2, §3, §4, §5, §6, §7

FAS4-AD aggregates [12] = test system: T6, FAS4-AD aggregates; experiment: as above; assay type: binding, human; set-up: key to Identification status of plasma protein bound: FAS4-AD: *: Identified, but not quantified; —: Not identified in any of the samples; conditions: for Identification status of plasma protein bound: FAS4-AD: symbol cells; for Relative composition of plasma proteins bound: FAS4-AD: 50:1 w/w plasma protein:fibril
Procedure: as §1, §2, §3, §4, §5, §6, §7

T1 sequence (P01009 383-418 limits assumed): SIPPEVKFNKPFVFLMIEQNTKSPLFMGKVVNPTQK

Substance | Relative composition of plasma proteins bound: C-36 (C-36 fibrils [1]) | Relative composition of plasma proteins bound: αSN (αSN fibrils [2]) | Relative composition of CSF proteins bound: Ab1 (Ab1 fibrils [3]) | Relative composition of CSF proteins bound: Ab2 (Ab2 fibrils [4]) | Relative composition of CSF proteins bound: Glucagon (glucagon fibrils [5]) | Relative composition of CSF proteins bound: C-36 (C-36 fibrils [6]) | Identification status of CSF protein bound: FAS4-AD (FAS4-AD aggregates [8]) | Relative composition of plasma proteins bound: Ab1 (Ab1 fibrils [9]) | Relative composition of plasma proteins bound: Glucagon (glucagon fibrils [11]) | Relative composition of plasma proteins bound: Ab2 (Ab2 fibrils [10]) | further results
Fibronectin | 0.2 ± 0.0 % of total protein | 1.0 ± 0.0 % of total protein | 0.9 ± 0.0 % of total protein | 1.2 ± 0.3 % of total protein | 0.2 ± 0.1 % of total protein | 0.7 ± 0.1 % of total protein | — |  |  |  | Identification status of CSF protein bound: αSN (αSN fibrils [7]): *
Ig κ chain C region: CSF protein bound to fibrils |  |  |  |  | 0.5 ± 0.0 % of total protein |  | * |  |  |  | Identification status of CSF protein bound: Ab1 (Ab1 fibrils [3]; symbol cells): *; Identification status of CSF protein bound: Ab2 (Ab2 fibrils [4]; symbol cells): *; Identification status of CSF protein bound: C-36 (C-36 fibrils [6]; symbol cells): *; Identification status of CSF protein bound: αSN (αSN fibrils [7]): *
Transthyretin |  |  | 3.0 ± 0.5 % of total protein | 4.0 ± 1.3 % of total protein | 1.1 ± 0.2 % of total protein | 2.4 ± 0.2 % of total protein |  |  |  |  | Relative composition of CSF proteins bound: αSN (αSN fibrils [7]): 4.3 ± 1.1 % of total protein; Relative composition of CSF proteins bound: FAS4-AD (FAS4-AD aggregates [8]; 4:1 w/w CSF protein:fibril): 4.4 ± 0.3 % of total protein
Apolipoprotein C-III: plasma protein bound to fibrils | 4.9 ± 0.3 % of total protein | 11.7 ± 3.0 % of total protein |  |  |  |  |  | 0.9 ± 0.1 % of total protein | 0.3 ± 0.0 % of total protein |  | Identification status of plasma protein bound: Ab2 (Ab2 fibrils [10]): *; Relative composition of plasma proteins bound: αSN (αSN fibrils [2]; listed as ApoC-III): 11.7 % of total protein; Identification status of plasma protein bound: FAS4-AD (FAS4-AD aggregates [12]): *
Fibrinogen γ chain: plasma protein bound to fibrils | 11.7 ± 2.0 % of total protein | 7.7 ± 1.3 % of total protein |  |  |  |  |  | 9.8 ± 0.3 % of total protein | 6.7 ± 0.3 % of total protein | 7.0 ± 0.3 % of total protein | Relative composition of plasma proteins bound: FAS4-AD (FAS4-AD aggregates [12]): 1.5 ± 0.4 % of total protein
Dickkopf-related protein 3: CSF protein bound to fibrils |  |  | 7.2 ± 0.3 % of total protein | 5.5 ± 2.2 % of total protein | 1.5 ± 0.4 % of total protein | 3.9 ± 1.5 % of total protein | — |  |  |  | Relative composition of CSF proteins bound: αSN (αSN fibrils [7]): 10.9 ± 1.0 % of total protein
Vitamin K-dependent protein S: plasma protein bound to fibrils | 0.6 ± 0.1 % of total protein | 2.5 ± 0.1 % of total protein |  |  |  |  |  | 1.1 ± 0.0 % of total protein | 0.8 ± 0.1 % of total protein | 1.3 ± 0.1 % of total protein | Identification status of plasma protein bound: FAS4-AD (FAS4-AD aggregates [12]): *
Coagulation factor IX: plasma protein bound to fibrils | 0.2 ± 0.0 % of total protein | 0.3 ± 0.1 % of total protein |  |  |  |  |  | 0.2 ± 0.0 % of total protein | 0.1 ± 0.0 % of total protein | 0.3 ± 0.1 % of total protein | Identification status of plasma protein bound: FAS4-AD (FAS4-AD aggregates [12]): *
Fibrinogen β chain: plasma protein bound to fibrils | 9.1 ± 0.8 % of total protein | 7.7 ± 2.3 % of total protein |  |  |  |  |  | 11.8 ± 1.1 % of total protein | 8.9 ± 1.1 % of total protein | 7.5 ± 0.9 % of total protein | Relative composition of plasma proteins bound: FAS4-AD (FAS4-AD aggregates [12]): 1.8 ± 0.2 % of total protein
Apolipoprotein C-I: plasma protein bound to fibrils (TPDVSSALDKLKEFGNTLEDKARELISRIKQSELSAKMREWFSETFQKVKEKLKIDS; UniProt P02654 27-83, looked up) | 0.6 ± 0.4 % of total protein | 5.5 ± 2.1 % of total protein |  |  |  |  |  |  |  |  | Identification status of plasma protein bound: Ab1 (Ab1 fibrils [9]; symbol cells): *; Identification status of plasma protein bound: Ab2 (Ab2 fibrils [10]): *; Identification status of plasma protein bound: Glucagon (glucagon fibrils [11]; symbol cells): *; Relative composition of plasma proteins bound: FAS4-AD (FAS4-AD aggregates [12]): 1.8 ± 0.1 % of total protein
Gelsolin |  |  | 2.9 ± 0.1 % of total protein | 3.5 ± 0.6 % of total protein | 0.8 ± 0.1 % of total protein | 1.9 ± 0.2 % of total protein | — |  |  |  | Relative composition of CSF proteins bound: αSN (αSN fibrils [7]): 5.0 ± 0.9 % of total protein

Source: article PMC6405930, “Conservation of the Amyloid Interactome Across Diverse Fibrillar Structures” (Scientific Reports, 2019)
